Data from patent US11970498B2, “CDK2 inhibitors” (BLUEPRINT MEDICINES CORPORATION, priority 2021, dated 2024).

Experiments:
CDK2/Cyclin E = CDK2/Cyclin E (Homo sapiens, UniProt P24941); assay: CDK2/Cyclin E biochemical phosphorylation assay (Caliper mobility shift); conditions: apparent IC50; 1.0 mM ATP or ATP Km; 1.25 nM enzyme; 25° C.; read-out: CDK2/cyclin E1 IC50
Summary of the method: (§1)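 7.5 µM 5-FAM-QSPKKG-CONH2 peptide phosphorylated by CDK2/Cyclin E (1.25 nM) or GST-CDK1/Cyclin B1 (1.5 nM) at 1.0 mM ATP or ATP Km, in HEPES pH 7.5, MgCl2, Brij-35, DTT, 1% DMSO, 25 °C to 10–20% conversion. EDTA stop; Caliper mobility-shift readout; apparent IC50 from percent activity vs log concentration.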

CDK1/Cyclin B1, GST-tag = molecular target: T1, CDK1/Cyclin B1, GST-tag (Homo sapiens, UniProt P06493); assay: CDK1/Cyclin B1 biochemical phosphorylation assay (Caliper mobility shift); conditions: apparent IC50; 1.0 mM ATP or ATP Km; 1.5 nM enzyme; 25° C.
T1 construct: GST
T1 sequence (P06493 whole entry): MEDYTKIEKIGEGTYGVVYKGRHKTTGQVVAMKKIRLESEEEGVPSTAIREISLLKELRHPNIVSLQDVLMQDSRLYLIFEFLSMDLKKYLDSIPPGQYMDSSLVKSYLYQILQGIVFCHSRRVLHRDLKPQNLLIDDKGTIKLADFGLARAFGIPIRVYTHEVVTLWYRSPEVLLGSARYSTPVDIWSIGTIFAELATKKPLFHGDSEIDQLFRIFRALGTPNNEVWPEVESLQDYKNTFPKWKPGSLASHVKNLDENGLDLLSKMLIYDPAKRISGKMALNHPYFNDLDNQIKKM
T1 sequence (P14635 whole entry partner): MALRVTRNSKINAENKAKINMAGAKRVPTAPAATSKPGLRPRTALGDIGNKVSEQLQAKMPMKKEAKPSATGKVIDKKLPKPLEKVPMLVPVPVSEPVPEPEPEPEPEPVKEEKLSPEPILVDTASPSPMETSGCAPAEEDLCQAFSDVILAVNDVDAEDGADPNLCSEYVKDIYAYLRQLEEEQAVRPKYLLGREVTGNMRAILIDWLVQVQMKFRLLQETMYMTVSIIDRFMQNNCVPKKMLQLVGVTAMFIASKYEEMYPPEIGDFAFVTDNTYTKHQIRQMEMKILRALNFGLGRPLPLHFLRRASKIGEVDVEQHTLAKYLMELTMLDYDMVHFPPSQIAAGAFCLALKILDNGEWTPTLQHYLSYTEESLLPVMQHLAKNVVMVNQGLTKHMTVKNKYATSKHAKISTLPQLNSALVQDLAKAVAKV
Summary of the method: as §1

| Structure (SMILES) | IC50 (CDK2/Cyclin E) [nM] | IC50 (CDK1/Cyclin B1, GST-tag) [nM] |
| --- | --- | --- |
| C[C@@H](c1cccnn1)n1ncc2ncc(Nc3cc(OC(F)F)[nH]n3)nc21 (single isomer, unassigned) [Example 24, (S)—N-(5-(difluoromethoxy)-1H-pyrazol-3-yl)-1-(1-(pyridazin-3-yl)ethyl)-1H-pyrazolo[3,4-b]pyrazin-6-amine or (R)—N-(5-(difluoromethoxy)-1H-pyrazol-3-yl)-1-(1-(pyridazin-3-yl)ethyl)-1H-pyrazolo[3,4-b]pyrazin-6-amine] | ≤ 10 | 100 to 500 |
| C[C@@H](c1cccnc1F)n1nc(Cl)c2ncc(Nc3cc(OC(F)F)[nH]n3)nc21 [Example 17, (S)-3-chloro-N-(5-(difluoromethoxy)-1H-pyrazol-3-yl)-1-(1-(2-fluoropyridin-3-yl)ethyl)-1H-pyrazolo[3,4-b]pyrazin-6-amine] | ≤ 10 | 100 to 500 |
| FC(F)Oc1cc(Nc2cnc3cnn(C[C@@]4(F)CCOC4)c3n2)n[nH]1 (single isomer, unassigned) [Example 168, (R)-N-(5-(difluoromethoxy)-1H-pyrazol-3-yl)-1-((3-fluorotetrahydrofuran-3-yl)methyl)-1H-pyrazolo[3,4-b]pyrazin-6-amine or (S)-N-(5-(difluoromethoxy)-1H-pyrazol-3-yl)-1-((3-fluorotetrahydrofuran-3-yl)methyl)-1H-pyrazolo[3,4-b]pyrazin-6-amine] | 30 to 100 | ≥ 500 |
| C[C@@H]([C@@H]1CCOC1)n1ncc2ncc(Nc3cc(OC(F)F)[nH]n3)nc21 (single isomer, unassigned) [Example 9] | ≤ 10 | ≥ 500 |
| CC1(Cn2ncc3ncc(Nc4cc(OC(F)F)[nH]n4)nc32)COC1 [Example 119, N-(5-(difluoromethoxy)-1H-pyrazol-3-yl)-1-((3-methyloxetan-3-yl)methyl)-1H-pyrazolo[3,4-b]pyrazin-6-amine] | ≤ 10 | ≥ 500 |
| CC1(C)C[C@H](Cn2ncc3ncc(Nc4cc(OC(F)F)[nH]n4)nc32)C(=O)N1 (single isomer, unassigned) [Example 184, (R)-3-((6-((5-(difluoromethoxy)-1H-pyrazol-3-yl)amino)-1H-pyrazolo[3,4-b]pyrazin-1-yl)methyl)-5,5-dimethylpyrrolidin-2-one or (S)-3-((6-((5-(difluoromethoxy)-1H-pyrazol-3-yl)amino)-1H-pyrazolo[3,4-b]pyrazin-1-yl)methyl)-5,5-dimethylpyrrolidin-2-one] | 30 to 100 | ≥ 500 |
| C[C@H]([C@@H]1CCOC1)n1ncc2ncc(Nc3cc(OC(F)F)[nH]n3)nc21 (single isomer, unassigned) [Example 11] | 20 to 30 | ≥ 500 |
| Fc1ncccc1Cn1ncc2ncc(Nc3cc(OC(F)F)[nH]n3)nc21 [Example 7, N-(5-(difluoromethoxy)-1H-pyrazol-3-yl)-1-((2-fluoropyridin-3-yl)methyl)-1H-pyrazolo[3,4-b]pyrazin-6-amine] | ≤ 10 | 100 to 500 |
| C[C@@H](C1CC1)n1ncc2ncc(Nc3cc(OC(F)F)[nH]n3)nc21 [Example 51, (S)-1-(1-cyclopropylethyl)-N-(5-(difluoromethoxy)-1H-pyrazol-3-yl)-1H-pyrazolo[3,4-b]pyrazin-6-amine] | ≤ 10 | 100 to 500 |
| C[C@@H](CCO)n1ncc2ncc(Nc3cc(OC(F)F)[nH]n3)nc21 (single isomer, unassigned) [Example 206, (R)-3-(6-((5-(difluoromethoxy)-1H-pyrazol-3-yl)amino)-1H-pyrazolo[3,4-b]pyrazin-1-yl)butan-1-ol or (S)-3-(6-((5-(difluoromethoxy)-1H-pyrazol-3-yl)amino)-1H-pyrazolo[3,4-b]pyrazin-1-yl)butan-1-ol] | > 100 | ≥ 500 |
| COc1cc(Nc2cnc3cnn([C@@H](C)c4ccccn4)c3n2)n[nH]1 [Example 45, (S)-N-(5-methoxy-1H-pyrazol-3-yl)-1-(1-(pyridin-2-yl)ethyl)-1H-pyrazolo[3,4-b]pyrazin-6-amine] | ≤ 10 | ≥ 500 |
| FC(F)Oc1cc(Nc2cnc3cnn(CCc4ccncc4)c3n2)n[nH]1 [Example 130, N-(5-(difluoromethoxy)-1H-pyrazol-3-yl)-1-(2-(pyridin-4-yl)ethyl)-1H-pyrazolo[3,4-b]pyrazin-6-amine] | ≤ 10 | 100 to 500 |
| FC(F)Oc1cc(Nc2cnc3cnn(C[C@H]4C[C@@H]4F)c3n2)n[nH]1 (single isomer, unassigned) [Example 159, N-(5-(difluoromethoxy)-1H-pyrazol-3-yl)-1-(((1R,2S)-2-fluorocyclopropyl)methyl)-1H-pyrazolo[3,4-b]pyrazin-6-amine or N-(5-(difluoromethoxy)-1H-pyrazol-3-yl)-1-(((1S,2R)-2-fluorocyclopropyl)methyl)-1H-pyrazolo[3,4-b]pyrazin-6-amine] | ≤ 10 | ≥ 500 |
| C[C@@H](c1cncc(F)c1)n1ncc2ncc(Nc3cc(OC(F)F)[nH]n3)nc21 (single isomer, unassigned) [Example 154, (R)-N-(5-(difluoromethoxy)-1H-pyrazol-3-yl)-1-(1-(5-fluoropyridin-3-yl)ethyl)-1H-pyrazolo[3,4-b]pyrazin-6-amine or (S)-N-(5-(difluoromethoxy)-1H-pyrazol-3-yl)-1-(1-(5-fluoropyridin-3-yl)ethyl)-1H-pyrazolo[3,4-b]pyrazin-6-amine] | 20 to 30 | ≥ 500 |
| FC(F)Oc1cc(Nc2cnc3cnn(CC45CCC(CC4)OC5)c3n2)n[nH]1 [Example 118, 1-((2-oxabicyclo[2.2.2]octan-4-yl)methyl)-N-(5-(difluoromethoxy)-1H-pyrazol-3-yl)-1H-pyrazolo[3,4-b]pyrazin-6-amine] | ≤ 10 | 100 to 500 |
| C[C@@H](c1cc(F)ccn1)n1ncc2ncc(Nc3cc(OC(F)F)[nH]n3)nc21 (single isomer, unassigned) [Example 13, (S)—N-(5-(difluoromethoxy)-1H-pyrazol-3-yl)-1-(1-(4-fluoropyridin-2-yl)ethyl)-1H-pyrazolo[3,4-b]pyrazin-6-amine or (R)—N-(5-(difluoromethoxy)-1H-pyrazol-3-yl)-1-(1-(4-fluoropyridin-2-yl)ethyl)-1H-pyrazolo[3,4-b]pyrazin-6-amine] | ≤ 10 | < 100 |
| C[C@@H](O)c1nn(CC2CCOCC2)c2nc(Nc3cc(OC(F)F)[nH]n3)cnc12 (single isomer, unassigned) [Example 176, (S)-1-(6-((5-(difluoromethoxy)-1H-pyrazol-3-yl)amino)-1-((tetrahydro-2H-pyran-4-yl)methyl)-1H-pyrazolo[3,4-b]pyrazin-3-yl)ethan-1-ol or (R)-1-(6-((5-(difluoromethoxy)-1H-pyrazol-3-yl)amino)-1-((tetrahydro-2H-pyran-4-yl)methyl)-1H-pyrazolo[3,4-b]pyrazin-3-yl)ethan-1-ol] | ≤ 10 | 100 to 500 |
| FC(F)Oc1cc(Nc2cnc3cnn(CC4CCC(F)(F)CC4)c3n2)n[nH]1 [Example 108, 1-((4,4-difluorocyclohexyl)methyl)-N-(5-(difluoromethoxy)-1H-pyrazol-3-yl)-1H-pyrazolo[3,4-b]pyrazin-6-amine] | ≤ 10 | ≥ 500 |
